Laboratory results as given in US11739098B2 (BRISTOL-MYERS SQUIBB COMPANY, priority 2017, dated 2023).
pIC50: −log10 of the molar value.

Assays:
Format in all cases: cell-based
human TLR8 = molecular target: T1, human TLR8 (Homo sapiens, UniProt Q9NR97); experiment: TLR8 inhibition reporter assay (HEK-Blue cells, SEAP reporter, R848 stimulation); conditions: HEK-Blue cells overexpressing human TLR8, SEAP reporter, R848 15.9 μM
T1 construct: host or cells: HEK-Blue cells (HEK293-derived reporter line)
T1 sequence (Q9NR97 27-1041): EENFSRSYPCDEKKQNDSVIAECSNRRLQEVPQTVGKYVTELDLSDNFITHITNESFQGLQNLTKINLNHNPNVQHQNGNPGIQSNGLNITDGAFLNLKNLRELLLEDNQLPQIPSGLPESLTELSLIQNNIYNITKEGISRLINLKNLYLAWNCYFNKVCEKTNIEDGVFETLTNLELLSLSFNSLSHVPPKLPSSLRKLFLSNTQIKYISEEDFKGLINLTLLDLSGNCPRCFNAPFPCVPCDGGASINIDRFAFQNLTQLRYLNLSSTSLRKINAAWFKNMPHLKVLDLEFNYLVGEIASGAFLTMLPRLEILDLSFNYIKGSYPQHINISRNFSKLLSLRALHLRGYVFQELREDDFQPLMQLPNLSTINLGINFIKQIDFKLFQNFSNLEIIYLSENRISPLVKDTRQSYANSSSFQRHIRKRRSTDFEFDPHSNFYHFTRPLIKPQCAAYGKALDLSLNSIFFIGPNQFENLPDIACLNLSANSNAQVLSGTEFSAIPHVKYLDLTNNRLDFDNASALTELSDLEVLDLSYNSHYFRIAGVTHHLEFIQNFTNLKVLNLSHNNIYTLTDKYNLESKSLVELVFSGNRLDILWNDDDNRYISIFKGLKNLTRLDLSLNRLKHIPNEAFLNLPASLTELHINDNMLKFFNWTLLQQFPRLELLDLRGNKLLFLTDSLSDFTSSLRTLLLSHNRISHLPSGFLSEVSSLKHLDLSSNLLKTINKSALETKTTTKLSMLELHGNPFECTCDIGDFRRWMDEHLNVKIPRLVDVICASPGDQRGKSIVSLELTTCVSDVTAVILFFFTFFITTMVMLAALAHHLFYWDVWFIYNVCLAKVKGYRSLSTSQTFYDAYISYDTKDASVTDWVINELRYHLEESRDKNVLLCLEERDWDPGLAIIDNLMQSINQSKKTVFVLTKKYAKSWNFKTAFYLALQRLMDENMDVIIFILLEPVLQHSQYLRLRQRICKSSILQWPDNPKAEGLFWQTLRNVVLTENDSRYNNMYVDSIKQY
Outline: (§1)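 Percent inhibition of agonist-induced SEAP secretion in HEK-Blue cells after 22 h at 37 °C. Stimuli: 7.5 μM gardiquimod, 15.9 μM R848, 5 nM ODN2006 for TLR7, TLR8 and TLR9, added after 30 min compound exposure over a 0.05 nM–50 μM range.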

human TLR7 = molecular target: T2, human TLR7 (Homo sapiens, UniProt Q9NYK1); experiment: TLR7 inhibition reporter assay (HEK-Blue cells, SEAP reporter, gardiquimod stimulation); conditions: HEK-Blue cells overexpressing human TLR7, SEAP reporter, gardiquimod 7.5 μM
T2 construct: host or cells: HEK-Blue cells (HEK293-derived reporter line)
T2 sequence (Q9NYK1 27-1049): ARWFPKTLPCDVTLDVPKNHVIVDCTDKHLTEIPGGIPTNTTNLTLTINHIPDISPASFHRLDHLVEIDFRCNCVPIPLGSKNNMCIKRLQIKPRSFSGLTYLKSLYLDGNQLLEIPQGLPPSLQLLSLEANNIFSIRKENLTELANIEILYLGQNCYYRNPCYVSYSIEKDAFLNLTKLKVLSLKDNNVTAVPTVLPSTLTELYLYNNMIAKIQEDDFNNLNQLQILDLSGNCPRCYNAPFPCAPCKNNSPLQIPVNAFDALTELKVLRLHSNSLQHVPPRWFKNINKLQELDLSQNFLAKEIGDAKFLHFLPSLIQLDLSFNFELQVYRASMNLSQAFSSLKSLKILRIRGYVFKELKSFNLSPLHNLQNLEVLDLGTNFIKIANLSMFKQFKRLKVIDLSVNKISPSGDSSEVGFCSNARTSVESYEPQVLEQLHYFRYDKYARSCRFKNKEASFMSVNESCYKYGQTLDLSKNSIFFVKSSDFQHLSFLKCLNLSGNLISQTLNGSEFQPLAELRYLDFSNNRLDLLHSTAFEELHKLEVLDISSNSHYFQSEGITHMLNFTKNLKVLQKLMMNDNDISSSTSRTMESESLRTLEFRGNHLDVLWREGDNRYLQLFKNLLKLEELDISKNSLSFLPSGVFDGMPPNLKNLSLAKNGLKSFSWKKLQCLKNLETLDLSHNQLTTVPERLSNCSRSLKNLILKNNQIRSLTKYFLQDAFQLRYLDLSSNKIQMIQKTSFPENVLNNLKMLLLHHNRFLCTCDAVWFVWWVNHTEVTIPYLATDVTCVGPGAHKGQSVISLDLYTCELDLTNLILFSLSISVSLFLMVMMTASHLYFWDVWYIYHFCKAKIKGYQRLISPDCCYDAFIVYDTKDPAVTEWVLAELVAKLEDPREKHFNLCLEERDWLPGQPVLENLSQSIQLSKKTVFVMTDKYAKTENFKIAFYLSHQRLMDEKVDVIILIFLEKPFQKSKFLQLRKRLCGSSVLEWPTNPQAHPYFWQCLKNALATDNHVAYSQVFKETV
Outline: as §1

human TLR9 = molecular target: T3, human TLR9 (Homo sapiens, UniProt Q9NR96); experiment: TLR9 inhibition reporter assay (HEK-Blue cells, SEAP reporter, ODN2006 stimulation); conditions: HEK-Blue cells overexpressing human TLR9, SEAP reporter, ODN2006 5 nM
T3 construct: host or cells: HEK-Blue cells (HEK293-derived reporter line)
T3 sequence (Q9NR96 26-1032): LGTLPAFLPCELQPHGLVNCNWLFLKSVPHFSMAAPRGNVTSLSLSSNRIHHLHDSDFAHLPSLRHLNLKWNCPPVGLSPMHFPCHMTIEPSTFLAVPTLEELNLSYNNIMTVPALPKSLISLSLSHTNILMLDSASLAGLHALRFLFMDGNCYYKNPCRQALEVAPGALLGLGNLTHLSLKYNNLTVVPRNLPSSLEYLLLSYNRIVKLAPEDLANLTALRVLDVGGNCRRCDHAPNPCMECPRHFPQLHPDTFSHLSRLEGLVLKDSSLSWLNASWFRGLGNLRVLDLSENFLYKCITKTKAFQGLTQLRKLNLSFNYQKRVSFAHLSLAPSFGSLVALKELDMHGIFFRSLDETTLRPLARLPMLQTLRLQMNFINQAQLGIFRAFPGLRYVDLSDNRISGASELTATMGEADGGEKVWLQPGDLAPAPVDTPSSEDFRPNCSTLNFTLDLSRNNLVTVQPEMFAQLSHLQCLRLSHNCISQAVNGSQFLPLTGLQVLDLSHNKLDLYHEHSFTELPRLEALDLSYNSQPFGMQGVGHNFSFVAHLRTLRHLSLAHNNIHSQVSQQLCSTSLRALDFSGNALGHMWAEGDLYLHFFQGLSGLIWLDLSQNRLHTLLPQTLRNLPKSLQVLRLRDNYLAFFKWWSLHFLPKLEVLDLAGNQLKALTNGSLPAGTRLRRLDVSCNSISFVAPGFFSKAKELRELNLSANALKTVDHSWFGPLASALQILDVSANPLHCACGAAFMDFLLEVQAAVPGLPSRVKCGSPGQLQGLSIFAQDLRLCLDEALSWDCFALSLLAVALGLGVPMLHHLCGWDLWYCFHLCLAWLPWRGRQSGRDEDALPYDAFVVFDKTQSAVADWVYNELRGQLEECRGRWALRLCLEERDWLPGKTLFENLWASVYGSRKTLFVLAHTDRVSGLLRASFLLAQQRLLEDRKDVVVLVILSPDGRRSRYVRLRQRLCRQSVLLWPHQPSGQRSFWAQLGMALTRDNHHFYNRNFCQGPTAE
Outline: as §1

SMILES	pIC50 (human TLR8)	pIC50 (human TLR7)	pIC50 (human TLR9)
CC(C)c1c(-c2ccnc3[nH]ncc23)[nH]c2ccc(C3CCN(C(=O)CCn4ccnc4)CC3)cc12 [Example 642, 3-(1H-imidazol-1-yl)-1-(4-(3-isopropyl-2-(1H-pyrazolo[3,4-b]pyridin-4-yl)-1H-indol-5-yl)piperidin-1-yl)propan-1-one]	> 7.00	> 7.00	4.30 to 6.00
Cc1cc(-c2[nH]c3ccc(C4CCN(C5COC5)CC4)cc3c2C(C)C)nc2scnc12 [Example 718, 5-(3-isopropyl-5-(1-(oxetan-3-yl)piperidin-4-yl)-1H-indol-2-yl)-7-methylthiazolo[5,4-b]pyridine]	> 7.00	> 7.00	4.30 to 6.00
CC(C)c1c(-c2ccnc3[nH]ccc23)[nH]c2ccc(C3CCN(C(=O)CN(C)C)CC3)cc12 [Example 564, 2-(dimethylamino)-1-(4-(3-isopropyl-2-(1H-pyrrolo[2,3-b]pyridin-4-yl)-1H-indol-5-yl)piperidin-1-yl)ethan-1-one]	> 7.00	> 7.00	4.30 to 6.00
Cc1cc2cc(-c3[nH]c4ccc(C5CCN(C6COC6)CC5)cc4c3C(C)C)ccn2n1 [Example 726, 5-(3-isopropyl-5-(1-(oxetan-3-yl)piperidin-4-yl)-1H-indol-2-yl)-2-methylpyrazolo[1,5-a]pyridine]	< 5.51	6.00 to 7.00	< 4.30
CCc1c(-c2cnc3c(N)n[nH]c3c2)[nH]c2ccc(C3CCNCC3)cc12 [Example 240, 6-(3-ethyl-5-(piperidin-4-yl)-1H-indol-2-yl)-1H-pyrazolo[4,3-b]pyridin-3-amine]	4.30 to 6.00	4.30 to 6.00	4.30 to 6.00
CCc1c(-c2ccnc3[nH]ncc23)[nH]c2ccc(C3CCNCC3O)cc12 (stereo not drawn) [Example 175, 4-(3-ethyl-2-(1H-pyrazolo[3,4-b]pyridin-4-yl)-1H-indol-5-yl)piperidin-3-ol]	6.00 to 7.00	6.00 to 7.00	4.30 to 6.00
Cc1cc(-c2[nH]c3ccc(C4CCN(CC(C)(C)O)CC4)cc3c2C(C)C)cc2cccnc12 [Example 771, 1-(4-(3-isopropyl-2-(8-methylquinolin-6-yl)-1H-indol-5-yl)piperidin-1-yl)-2-methylpropan-2-ol]	> 7.00	> 7.00	4.30 to 6.00
CC(C)c1c(-c2ccnc3[nH]ncc23)[nH]c2ccc(C3CCN(C(=O)CN4CC[C@H](N(C)C)C4)CC3)cc12 [Example 590, (S)-2-(3-(dimethylamino)pyrrolidin-1-yl)-1-(4-(3-isopropyl-2-(1H-pyrazolo [3,4-b]pyridin-4-yl)-1H-indol-5-yl)piperidin-1-yl)ethan-1-one]	> 7.00	> 7.00	6.00 to 7.00
Cc1ccc(-c2[nH]c3ccc(C4CCN(C(=O)C[C@H](C)O)CC4)cc3c2C(C)C)c2ncnn12 [Example 599, (S)-3-hydroxy-1-(4-(3-isopropyl-2-(5-methyl-[1,2,4]triazolo[1,5-a]pyridin-8-yl)-1H-indol-5-yl)piperidin-1-yl)butan-1-one]	6.00 to 7.00	6.00 to 7.00	4.30 to 6.00
CN(C)C(=O)CN1CCC(c2ccc3[nH]c(-c4ccn5ccnc5c4)c(CC(F)F)c3c2)CC1 [Example 445, 2-(4-(3-(2,2-difluoroethyl)-2-(imidazo[1,2-a]pyridin-7-yl)-1H-indol-5-yl)piperidin-1-yl)-N,N-dimethylacetamide]	6.00 to 7.00	> 7.00	4.30 to 6.00
Cc1c(-c2[nH]c3ccc(C4CCNCC4)cc3c2C(C)C)ccc2nnnn12 [Example 72, 6-(3-isopropyl-5-(piperidin-4-yl)-1H-indol-2-yl)-5-methyltetrazolo[1,5-a]pyridine]	> 7.00	6.00 to 7.00	4.30 to 6.00
Cc1cn2cc(-c3[nH]c4ccc(C5CCNCC5)cc4c3C(C)C)cc(F)c2n1 [Example 126, 8-fluoro-6-(3-isopropyl-5-(piperidin-4-yl)-1H-indol-2-yl)-2-methylimidazo[1,2-a]pyridine]	6.00 to 7.00	> 7.00	6.00 to 7.00
Cc1c(-c2[nH]c3ccc(C4CCN(CC(C)(C)O)CC4)cc3c2C(C)C)nn2ncnc2c1C [Example 747, 1-(4-(2-(7,8-dimethyl-[1,2,4]triazolo[1,5-b]pyridazin-6-yl)-3-isopropyl-1H-indol-5-yl)piperidin-1-yl)-2-methylpropan-2-ol]	> 7.00	> 7.00	4.30 to 6.00
CNCC(=O)N1CCC(c2ccc3[nH]c(-c4cc(C(F)(F)F)c5nccn5c4)c(C(C)C)c3c2)CC1 [Example 508, 1-(4-(3-isopropyl-2-(8-(trifluoromethyl)imidazo[1,2-a]pyridin-6-yl)-1H-indol-5-yl)piperidin-1-yl)-2-(methylamino)ethan-1-one]	6.00 to 7.00	> 7.00	6.00 to 7.00
